Where two headings read alike, the source gives them in different places.
Columns and labels:
I1 (agonist radioligand) = assay: CEREP Diversity Panel; format: binding; parameters: dose or concentration left out as unconfirmed
Description: (§1) […]. MAO-A inhibition at 10 μM was 37%, in line with internal data.

[1] = system: alpha 1 (non-selective) (antagonist radioligand); assay: CEREP Diversity Panel; format: binding; parameters: dose or concentration left out as unconfirmed
Description: as §1

[2] = system: Ca 2+ channel (L, dihydropyridine site) (antagonist radioligand); assay: CEREP Diversity Panel; format: binding; parameters: dose or concentration left out as unconfirmed
Description: as §1

[3] = system: AMPA (agonist radioligand); assay: CEREP Diversity Panel; format: binding; parameters: dose or concentration left out as unconfirmed
Description: as §1

[4] = system: GABA (non-selective) (agonist radioligand); assay: CEREP Diversity Panel; format: binding; parameters: dose or concentration left out as unconfirmed
Description: as §1

[5] = system: kainate (agonist radioligand); assay: CEREP Diversity Panel; format: binding; parameters: dose or concentration left out as unconfirmed
Description: as §1

[6] = system: GABA transporter (antagonist radioligand); assay: CEREP Diversity Panel; format: binding; parameters: dose or concentration left out as unconfirmed
Description: as §1

[7] = system: Cl- channel (GABA-gated) (antagonist radioligand); assay: CEREP Diversity Panel; format: binding; parameters: dose or concentration left out as unconfirmed
Description: as §1

[8] = system: alpha 2 (non-selective) (antagonist radioligand); assay: CEREP Diversity Panel; format: binding; parameters: dose or concentration left out as unconfirmed
Description: as §1

[9] = system: opioid (non-selective) (antagonist radioligand); assay: CEREP Diversity Panel; format: binding; parameters: dose or concentration left out as unconfirmed
Description: as §1

[10] = system: Ca 2+ channel (L, diltiazem site) (benzothiazepines) (antagonist radioligand); assay: CEREP Diversity Panel; format: binding; parameters: dose or concentration left out as unconfirmed
Description: as §1

[11] = system: KV channel (antagonist radioligand); assay: CEREP Diversity Panel; format: binding; parameters: dose or concentration left out as unconfirmed
Description: as §1

[12] = system: 5-HT (non-selective) (agonist radioligand); assay: CEREP Diversity Panel; format: binding; parameters: dose or concentration left out as unconfirmed
Description: as §1

[13] = system: PCP (antagonist radioligand); assay: CEREP Diversity Panel; format: binding; parameters: dose or concentration left out as unconfirmed
Description: as §1

[14] = system: KATP channel (antagonist radioligand); assay: CEREP Diversity Panel; format: binding; parameters: dose or concentration left out as unconfirmed
Description: as §1

[15] = system: SKCa channel (antagonist radioligand); assay: CEREP Diversity Panel; format: binding; parameters: dose or concentration left out as unconfirmed
Description: as §1

[16] = system: P2Y (agonist radioligand); assay: CEREP Diversity Panel; format: binding; parameters: dose or concentration left out as unconfirmed
Description: as §1

[17] = system: NMDA (antagonist radioligand); assay: CEREP Diversity Panel; format: binding; parameters: dose or concentration left out as unconfirmed
Description: as §1

[18] = system: Na+ channel (site 2) (antagonist radioligand); assay: CEREP Diversity Panel; format: binding; parameters: dose or concentration left out as unconfirmed
Description: as §1

[19] = system: Y (non-selective) (agonist radioligand); assay: CEREP Diversity Panel; format: binding; parameters: dose or concentration left out as unconfirmed
Description: as §1

[20] = system: Ca 2+ channel (L, verapamil site) (phenylalkylamine) (antagonist radioligand); assay: CEREP Diversity Panel; format: binding; parameters: dose or concentration left out as unconfirmed
Description: as §1

[21] = system: BZD (central) (agonist radioligand); assay: CEREP Diversity Panel; format: binding; parameters: dose or concentration left out as unconfirmed
Description: as §1

[22] = system: s (non-selective) (agonist radioligand); assay: CEREP Diversity Panel; format: binding; parameters: dose or concentration left out as unconfirmed
Description: as §1

[23] = system: P2X (agonist radioligand); assay: CEREP Diversity Panel; format: binding; parameters: dose or concentration left out as unconfirmed
Description: as §1

Mouse recombinant SMOX = target: T1, Mouse recombinant SMOX (Mus musculus, UniProt Q99K82); assay: SMOX inhibition assay; format: biochemical
T1 construct: gift: Paolo Mariottini, Department of Biology, University of Roma
Description: Mouse recombinant SMOX [4] was provided by Paolo Mariottini (Department of Biology, University of Roma). The biochemical activity was measured by its ability to oxidize spermine (specific substrate for SMOX) and produce H2O2 using a horseradish peroxidase coupled assay. The assay buffer for the mSMOX reaction was 100 mM Sodium Phosphate pH 8.0. The inhibition was monitored during 10 min in the presence of KM spermine peptide.

KDM1A = KDM1A (Homo sapiens, UniProt O60341); assay: KDM1A inhibition assay (Amplex Red, dimethylH3K4 peptide); format: biochemical; parameters: purchased BPS Bioscience 50100
MLL complex (h) = MLL complex (h) (Homo sapiens, UniProt Q03164); assay: Epigenetic selectivity profile; format: biochemical
Description: as §1

JARID1A (h) = JARID1A (h) (Homo sapiens, UniProt P29375); assay: Epigenetic selectivity profile; format: biochemical
Description: as §1

DOT1L (h) = DOT1L (h) (Homo sapiens, UniProt Q8TEK3); assay: Epigenetic selectivity profile; format: biochemical
Description: as §1

HDAC6 (h) = HDAC6 (h) (Homo sapiens, UniProt Q9UBN7); assay: Epigenetic selectivity profile; format: biochemical
Description: as §1

[24] = target: sirtuin 1 (h) (inhibitor effect) (Homo sapiens, UniProt Q96EB6); assay: Epigenetic selectivity profile; format: biochemical
Description: as §1

HDAC11 (h) = HDAC11 (h) (Homo sapiens, UniProt Q96DB2); assay: Epigenetic selectivity profile; format: biochemical
Description: as §1

JMJD2A (h) = JMJD2A (h) (Homo sapiens, UniProt O75164); assay: Epigenetic selectivity profile; format: biochemical
Description: as §1

SUV39H1 (h) = SUV39H1 (h) (Homo sapiens, UniProt O43463); assay: Epigenetic selectivity profile; format: biochemical
Description: as §1

ATPase (Na+/K+) = assay: CEREP Diversity Panel; format: biochemical; parameters: dose or concentration left out as unconfirmed
Description: as §1

[25] = system: COMT (catechol- O-methyl transferase); assay: CEREP Diversity Panel; format: biochemical; parameters: dose or concentration left out as unconfirmed
Description: as §1

[26] = system: adenylyl cyclase (activator effect); assay: CEREP Diversity Panel; format: biochemical; parameters: dose or concentration left out as unconfirmed
Description: as §1

JARID1A (h), sequence (P29375 whole entry): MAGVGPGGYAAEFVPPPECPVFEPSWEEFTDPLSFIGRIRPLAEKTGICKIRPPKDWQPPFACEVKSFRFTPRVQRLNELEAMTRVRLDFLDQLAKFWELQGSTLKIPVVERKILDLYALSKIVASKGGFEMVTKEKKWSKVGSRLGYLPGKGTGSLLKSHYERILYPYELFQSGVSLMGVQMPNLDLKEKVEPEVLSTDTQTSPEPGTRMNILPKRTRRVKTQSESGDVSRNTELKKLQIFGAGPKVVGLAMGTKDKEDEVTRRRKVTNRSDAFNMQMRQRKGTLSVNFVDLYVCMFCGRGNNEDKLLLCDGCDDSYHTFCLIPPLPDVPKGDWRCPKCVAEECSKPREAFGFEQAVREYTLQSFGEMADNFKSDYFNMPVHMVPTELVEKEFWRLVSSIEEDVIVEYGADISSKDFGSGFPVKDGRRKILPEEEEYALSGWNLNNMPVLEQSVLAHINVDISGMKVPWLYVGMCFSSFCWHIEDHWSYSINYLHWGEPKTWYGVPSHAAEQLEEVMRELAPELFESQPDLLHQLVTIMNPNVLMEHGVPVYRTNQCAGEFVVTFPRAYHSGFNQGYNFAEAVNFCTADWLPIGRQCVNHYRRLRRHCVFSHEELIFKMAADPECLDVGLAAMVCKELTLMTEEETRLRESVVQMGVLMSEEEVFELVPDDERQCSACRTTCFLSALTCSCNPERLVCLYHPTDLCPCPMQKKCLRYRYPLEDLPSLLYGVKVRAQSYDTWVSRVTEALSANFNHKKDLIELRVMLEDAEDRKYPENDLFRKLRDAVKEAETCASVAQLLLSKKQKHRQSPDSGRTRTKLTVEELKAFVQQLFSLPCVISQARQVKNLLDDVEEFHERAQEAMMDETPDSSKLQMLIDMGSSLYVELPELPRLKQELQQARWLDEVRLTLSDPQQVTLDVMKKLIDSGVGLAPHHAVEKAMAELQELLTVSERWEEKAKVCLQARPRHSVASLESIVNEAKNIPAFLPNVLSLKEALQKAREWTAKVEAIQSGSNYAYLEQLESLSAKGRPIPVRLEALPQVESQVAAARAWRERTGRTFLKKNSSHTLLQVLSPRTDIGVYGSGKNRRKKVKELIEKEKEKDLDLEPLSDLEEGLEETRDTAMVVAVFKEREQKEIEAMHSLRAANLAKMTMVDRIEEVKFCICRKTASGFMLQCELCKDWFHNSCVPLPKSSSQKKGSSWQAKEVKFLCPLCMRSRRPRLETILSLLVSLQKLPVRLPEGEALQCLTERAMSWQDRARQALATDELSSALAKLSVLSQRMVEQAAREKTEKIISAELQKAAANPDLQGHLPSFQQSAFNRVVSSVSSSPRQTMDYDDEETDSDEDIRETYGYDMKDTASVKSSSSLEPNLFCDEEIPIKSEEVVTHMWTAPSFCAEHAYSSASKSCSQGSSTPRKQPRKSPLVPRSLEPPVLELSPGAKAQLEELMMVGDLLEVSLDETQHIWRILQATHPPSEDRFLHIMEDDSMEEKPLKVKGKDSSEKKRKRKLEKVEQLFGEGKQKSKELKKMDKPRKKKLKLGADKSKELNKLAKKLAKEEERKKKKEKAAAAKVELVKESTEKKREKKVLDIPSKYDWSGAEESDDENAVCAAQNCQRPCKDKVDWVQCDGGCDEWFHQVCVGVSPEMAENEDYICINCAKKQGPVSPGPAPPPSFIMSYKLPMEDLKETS
HDAC6 (h), sequence (Q9UBN7 whole entry): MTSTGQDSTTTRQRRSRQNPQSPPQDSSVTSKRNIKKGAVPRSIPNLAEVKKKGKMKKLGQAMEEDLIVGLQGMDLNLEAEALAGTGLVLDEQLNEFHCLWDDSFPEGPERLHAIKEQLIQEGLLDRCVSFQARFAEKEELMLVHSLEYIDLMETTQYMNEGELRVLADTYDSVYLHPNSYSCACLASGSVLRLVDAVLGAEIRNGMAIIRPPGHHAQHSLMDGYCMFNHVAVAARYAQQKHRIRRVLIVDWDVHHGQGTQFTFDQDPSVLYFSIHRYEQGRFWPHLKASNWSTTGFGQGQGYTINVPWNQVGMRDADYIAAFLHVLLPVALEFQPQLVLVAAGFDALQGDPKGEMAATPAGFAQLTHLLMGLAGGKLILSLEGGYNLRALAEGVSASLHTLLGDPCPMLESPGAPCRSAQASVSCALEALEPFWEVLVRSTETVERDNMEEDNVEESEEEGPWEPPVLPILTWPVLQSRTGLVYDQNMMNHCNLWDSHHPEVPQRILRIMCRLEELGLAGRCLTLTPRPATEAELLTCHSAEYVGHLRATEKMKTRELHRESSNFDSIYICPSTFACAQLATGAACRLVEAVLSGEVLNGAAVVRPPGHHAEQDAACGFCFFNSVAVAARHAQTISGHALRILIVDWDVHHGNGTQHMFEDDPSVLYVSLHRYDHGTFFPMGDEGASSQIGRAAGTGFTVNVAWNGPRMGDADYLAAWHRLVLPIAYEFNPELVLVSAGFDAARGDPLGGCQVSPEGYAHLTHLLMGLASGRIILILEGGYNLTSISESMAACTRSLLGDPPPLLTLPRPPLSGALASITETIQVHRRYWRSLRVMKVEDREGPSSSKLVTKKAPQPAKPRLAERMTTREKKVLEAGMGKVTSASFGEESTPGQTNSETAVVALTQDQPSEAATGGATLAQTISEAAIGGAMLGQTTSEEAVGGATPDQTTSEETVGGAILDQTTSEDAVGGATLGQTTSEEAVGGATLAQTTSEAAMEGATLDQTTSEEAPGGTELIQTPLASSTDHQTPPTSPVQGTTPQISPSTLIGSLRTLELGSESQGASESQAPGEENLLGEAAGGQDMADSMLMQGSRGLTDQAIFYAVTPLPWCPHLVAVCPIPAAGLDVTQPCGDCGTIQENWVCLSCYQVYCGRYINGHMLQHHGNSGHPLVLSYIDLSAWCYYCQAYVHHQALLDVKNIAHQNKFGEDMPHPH
JMJD2A (h), sequence (O75164 whole entry): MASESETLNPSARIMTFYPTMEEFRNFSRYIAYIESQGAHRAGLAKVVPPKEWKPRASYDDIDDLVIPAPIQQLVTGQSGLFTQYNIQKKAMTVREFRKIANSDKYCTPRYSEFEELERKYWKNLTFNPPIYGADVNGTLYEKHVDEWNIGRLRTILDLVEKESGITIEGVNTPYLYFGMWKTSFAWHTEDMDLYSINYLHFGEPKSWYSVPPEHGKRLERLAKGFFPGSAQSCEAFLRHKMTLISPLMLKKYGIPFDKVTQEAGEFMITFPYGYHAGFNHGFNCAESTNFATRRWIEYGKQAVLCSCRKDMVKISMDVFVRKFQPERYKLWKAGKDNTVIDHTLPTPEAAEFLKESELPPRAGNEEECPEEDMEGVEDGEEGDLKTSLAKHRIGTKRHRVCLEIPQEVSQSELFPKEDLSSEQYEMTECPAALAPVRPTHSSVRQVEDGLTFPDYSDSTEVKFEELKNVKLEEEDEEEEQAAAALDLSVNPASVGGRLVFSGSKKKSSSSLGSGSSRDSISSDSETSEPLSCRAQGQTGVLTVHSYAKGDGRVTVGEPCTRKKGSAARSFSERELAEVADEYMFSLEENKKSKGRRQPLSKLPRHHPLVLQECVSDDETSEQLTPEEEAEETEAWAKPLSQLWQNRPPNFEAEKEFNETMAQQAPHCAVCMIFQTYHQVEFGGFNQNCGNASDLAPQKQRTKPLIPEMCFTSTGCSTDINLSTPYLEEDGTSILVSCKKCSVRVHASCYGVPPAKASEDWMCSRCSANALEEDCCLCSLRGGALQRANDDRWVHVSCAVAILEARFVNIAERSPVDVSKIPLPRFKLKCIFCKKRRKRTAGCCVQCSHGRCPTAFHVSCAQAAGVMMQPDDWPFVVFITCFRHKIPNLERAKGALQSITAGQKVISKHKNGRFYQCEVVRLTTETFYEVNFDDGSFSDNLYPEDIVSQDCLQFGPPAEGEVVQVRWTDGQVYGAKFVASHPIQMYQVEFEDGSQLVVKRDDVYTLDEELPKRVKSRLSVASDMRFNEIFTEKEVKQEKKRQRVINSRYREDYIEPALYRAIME
SUV39H1 (h), sequence (O43463 whole entry): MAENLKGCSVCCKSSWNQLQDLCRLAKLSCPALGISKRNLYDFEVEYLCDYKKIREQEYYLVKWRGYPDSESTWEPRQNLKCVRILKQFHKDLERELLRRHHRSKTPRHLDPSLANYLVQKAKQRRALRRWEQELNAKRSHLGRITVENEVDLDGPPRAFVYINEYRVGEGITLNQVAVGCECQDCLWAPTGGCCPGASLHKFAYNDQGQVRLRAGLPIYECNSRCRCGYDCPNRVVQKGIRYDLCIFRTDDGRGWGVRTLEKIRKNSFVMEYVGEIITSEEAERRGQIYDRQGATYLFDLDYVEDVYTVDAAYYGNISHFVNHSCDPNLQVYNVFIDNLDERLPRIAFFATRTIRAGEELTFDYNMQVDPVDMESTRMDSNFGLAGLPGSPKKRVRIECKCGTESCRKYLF
HDAC11 (h), sequence (Q96DB2 whole entry): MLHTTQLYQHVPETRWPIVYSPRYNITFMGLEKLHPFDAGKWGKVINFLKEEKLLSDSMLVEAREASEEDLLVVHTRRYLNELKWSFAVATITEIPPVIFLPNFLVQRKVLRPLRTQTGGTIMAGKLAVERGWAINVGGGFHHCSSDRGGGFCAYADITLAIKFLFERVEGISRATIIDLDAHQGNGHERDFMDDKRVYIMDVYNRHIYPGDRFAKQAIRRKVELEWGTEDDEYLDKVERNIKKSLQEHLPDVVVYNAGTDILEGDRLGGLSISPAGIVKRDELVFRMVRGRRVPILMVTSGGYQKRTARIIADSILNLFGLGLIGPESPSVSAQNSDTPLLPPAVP

Nc1nnc(CN[C@@H]2C[C@H]2c2ccc(OCc3ccccc3)cc2)o1 [ORY-2001, vafidemstat]
% inhibition (I1 (agonist radioligand)): 26% | % inhibition [1]: 0% | % inhibition [2]: -1% | % inhibition [3]: -2% | % inhibition [4]: 6% | % inhibition [5]: 2% | % inhibition [6]: -3% | % inhibition [7]: 31% | % inhibition [8]: 3% | % inhibition [9]: -2% | % inhibition [10]: 0% | % inhibition [11]: -4% | % inhibition [12]: 5% | % inhibition [13]: 1% | % inhibition [14]: 3% | % inhibition [15]: -11% | % inhibition [16]: 5% | % inhibition [17]: 6% | % inhibition [18]: 12% | % inhibition [19]: -28% | % inhibition [20]: 5% | % inhibition [21]: -21% | % inhibition [22]: 9% | % inhibition [23]: 3% | inhibition at 10 µM (Mouse recombinant SMOX): 31% | IC50 (KDM1A; mean IC50 KDM1A, mean ± SD, minimum 2 independent experiments): 0.101 ± 0.04 µM | IC50 (KDM1A; rKDM1A, N = 1, n = 2, read-out: IC50 KDM1A, representative dose-response curve): 0.105 µM | inhibition at 10 µM (MLL complex (h)): 3% | inhibition at 10 µM (JARID1A (h)): 2% | inhibition at 10 µM (DOT1L (h)): -1% | inhibition at 10 µM (HDAC6 (h)): 0% | inhibition at 10 µM [24]: 1% | inhibition at 10 µM (HDAC11 (h)): -2% | inhibition at 10 µM (JMJD2A (h)): 7% | inhibition at 10 µM (SUV39H1 (h)): -7% | % inhibition (ATPase (Na+/K+)): 4% | % inhibition [25]: 11% | % inhibition [26]: 0%

— PMC7259601 (PLoS ONE, 2020)
